# Laboratory results from US20240011018A1, “MULTIPLEXED METHOD FOR ASSESSING GLOBAL OR GENOMIC LOCUS-SPECIFIC LEVELS OF CHROMATIN MODIFICATION” (Epigenica AB, priority 2020, published 2024).
# Assays:
# [1] = test system: H3K27ac; test: hmqChIP quantification of global H3K27ac level after drug treatment; type: cell-based, human; settings: HCT116 and U2OS cells, 0.5 uM/5 uM, 40 h, anti-H3K27ac ChIP
# Experimental: (§1) A highly multiplexed experiment profiling global levels of three histone modifications in 96 samples: Two different cancer cell lines (human colon cancer HCT116, human osteosarcoma U2OS) were treated with 11 different drugs at 2 concentrations each (low, high) or DMSO as a control. Two replicates each (rep1, rep2) were performed of each treatment, totaling 96 samples. For U2OS, 9000 cells were seeded per 96-well, For HCT116, 6000 cells were seeded. After 24 h, drugs were added to each well, using the concentration specified in the following table:
# (§2) After further growth for 40 h, the cell number was approx. 50 000 cells per well. […]
# (§3) The final libraries were sequenced twice, to test the influence of sequencing two different random set of molecules on the quantification of global levels (that only scarcely covering the genome). The first time ˜1 Mio reads were sequenced in total for the four sub-pools (3 ChIP, 1 input), approximately 250 000 per sub-pool. […] The second time at total of 25 Mio reads were collected and either all of the reads were analyzed, or only a randomly selected subset of 1 mio reads. When all reads were analyzed, it corresponds to approx. 260,416 reads per sample. Input-normalized unique read count (INRCs) using DMSO controls as reference were calculated as described in Example 2 and plotted in a heatmap with grayscale and circle size reflecting the INRC.
# [2] = test system: H3K27me3 in HCT116 cells; test: hmqChIP quantification of global H3K27me3 level after drug treatment, HCT116; type: cell-based, human; settings: 0.5 uM/5 uM, 40 h, anti-H3K27me3 ChIP
# Experimental: as §1, §2, §3
# [3] = test system: H3K27me3 in U2OS cells; test: hmqChIP quantification of global H3K27me3 level after drug treatment, U2OS; type: cell-based, human; settings: 0.5 uM/5 uM, 40 h, anti-H3K27me3 ChIP
# Experimental: as §1, §2, §3
# [4] = test system: H3K27me3 in mouse embryonic stem cells; settings: dataset according to Kumar and Elsässer 2019; cited from earlier work
smiles,measurement,setting,value
O=C(CCCCCCC(=O)Nc1ccccc1)NO [SAHA],global H3K27ac level (INRC relative to DMSO control),[1],increase H3K27ac acetylation
CCN(c1cc(C#CCN2CCOCC2)cc(C(=O)NCc2c(C)cc(C)[nH]c2=O)c1C)[C@H]1CC[C@H](N(C)CCOC)CC1 [EPZ011989],global H3K27me3 level (INRC relative to DMSO control),[2],decrease H3K27me3
CC(NC(=O)c1ccccc1/N=C/c1c(O)ccc2ccccc12)c1ccccc1 (centres unmarked) [Sirtinol],global H3K27me3 level (INRC relative to DMSO control),[3],decreases H3K27me3
same,global H3K27ac level (INRC relative to DMSO control),[1],increase H3K27ac acetylation
CCOC(=O)CCNc1cc(N2CCc3ccccc3CC2)nc(-c2ccccn2)n1 [GSK-J4],H3K27me3 level of treated mESC used as calibration cell source,[4],increase H3K27me3 above physiologic levels
